{"source": "patent US20050182128A1", "about": "“Use of anethole dithiolethione in lung cancer chemoprevention” (priority 2002, published 2005)", "key": {"human Jurkat cells": {"tested_on": "human Jurkat cells", "conditions": "pretreatment of human Jurkat cells; cited from earlier work"}, "[1]": {"experiment": "Phase IIb trial: adverse events and toxicity monitoring", "type": "in vivo, human", "protocol": "Follow Up. The participants were seen monthly for examination of drug related adverse events. Liver enzymes were measured at baseline and at months 3 and 6 for toxicity monitoring. Fluorescence bronchoscopy was repeated after 6 months of study medication. The bronchoscopist was blinded to the intervention assignment. All previously biopsied sites were identified and re-biopsied under fluorescence bronchoscopy. Biopsy was also taken from new areas with abnormal fluorescence."}, "nuclear factor NFκB": {"tested_on": "nuclear factor NFκB", "conditions": "human Jurkat cells; cited from earlier work"}, "[2]": {"conditions": "25 mg three times daily; cited from earlier work"}, "[3]": {"tested_on": "glutathione-S-transferase (GST)", "conditions": "rat model of hepatoma; p<0.01; cited from earlier work"}, "aflatoxin tumorigenicity": {"tested_on": "aflatoxin tumorigenicity", "conditions": "rats; cited from earlier work"}, "lipid peroxidation": {"tested_on": "lipid peroxidation", "conditions": "in-vitro, rat liver microsome model; cited from earlier work"}}, "note": "Entries after “also recorded” stand apart in the source; their conditions may differ. Marks after values point to notes of the source that are not given here.", "data": [{"smiles": "COc1ccc(-c2cc(=S)ss2)cc1", "note": "[ADT, 5-(p-methoxyphenyl)-1,2-dithiole-3-thione]", "values": [{"measurement": "Protection against oxidative stress-induced cytotoxicity", "setting": "human Jurkat cells", "value": "significantly protects cells"}, {"measurement": "Adverse events, overall description", "setting": "[1]; 25 mg orally TID, six months", "value": "mostly minor gastrointestinal symptoms that resolved with dose reduction or discontinuation of the medication; also recorded: only adverse events observed were gastrointestinal"}, {"measurement": "Symptoms significantly more frequent than with placebo", "setting": "[1]; P=0.018", "value": "Only abdominal bloating was significantly more frequent"}, {"measurement": "Subjects with dose reduced to 25 mg BID", "setting": "[1]; of 56", "value": 17}, {"measurement": "Subjects with dose reduced to 25 mg QD", "setting": "[1]; of 56", "value": 4}, {"measurement": "Constipation", "setting": "[1]; placebo 0%", "value": 5, "unit": "%"}, {"measurement": "Increased Saliva", "setting": "[1]; placebo 4%", "value": 2, "unit": "%"}, {"measurement": "Abdominal Bloating", "setting": "[1]; placebo 4%, P = 0.01 compared to placebo", "value": 25, "unit": "%*"}, {"measurement": "Participants with Grade 3 symptoms", "setting": "[1]; placebo 6%", "value": 11, "unit": "%"}, {"measurement": "Loose Stool", "setting": "[1]; placebo 8%", "value": 16, "unit": "%"}, {"measurement": "Diarrhea", "setting": "[1]; placebo 12%", "value": 13, "unit": "%"}, {"measurement": "Participants with Grade 2 symptoms", "setting": "[1]; placebo 20%", "value": 51, "unit": "%"}, {"measurement": "Participants requiring dose reduction", "setting": "[1]; placebo 25%", "value": 45, "unit": "%"}, {"measurement": "Excessive Flatus", "setting": "[1]; placebo 53%", "value": 93, "unit": "%"}, {"measurement": "Grade 3 elevation of liver enzymes", "setting": "[1]; returned to normal after discontinuation", "value": "One of the participants"}, {"measurement": "Modulation of NFκB activation", "setting": "nuclear factor NFκB", "value": "capable of modulating"}, {"measurement": "Safety and efficacy at therapeutic dose", "setting": "[2]", "value": "safe and effective"}, {"measurement": "Mean GST levels in the liver", "setting": "[3]", "value": "statistically increased"}, {"measurement": "Protection against aflatoxin tumorigenicity", "setting": "aflatoxin tumorigenicity", "value": "protective action against aflatoxin tumorigenicity"}, {"measurement": "Inhibition of lipid peroxidation", "setting": "lipid peroxidation", "value": "potent inhibitor of lipid peroxidation"}]}]}
